Laboratory results published in BindingDB's records for doi:10.1016/j.bmcl.2006.06.087 (Fundp, 2006).

molecular target: T1, Fatty-acid amide hydrolase 1 [30-579] (Rattus norvegicus, UniProt P97612); assay: FAAH Inhibition Assay; conditions: pH 9; 37 °C
T1 construct: 30-579
T1 sequence (P97612 whole entry): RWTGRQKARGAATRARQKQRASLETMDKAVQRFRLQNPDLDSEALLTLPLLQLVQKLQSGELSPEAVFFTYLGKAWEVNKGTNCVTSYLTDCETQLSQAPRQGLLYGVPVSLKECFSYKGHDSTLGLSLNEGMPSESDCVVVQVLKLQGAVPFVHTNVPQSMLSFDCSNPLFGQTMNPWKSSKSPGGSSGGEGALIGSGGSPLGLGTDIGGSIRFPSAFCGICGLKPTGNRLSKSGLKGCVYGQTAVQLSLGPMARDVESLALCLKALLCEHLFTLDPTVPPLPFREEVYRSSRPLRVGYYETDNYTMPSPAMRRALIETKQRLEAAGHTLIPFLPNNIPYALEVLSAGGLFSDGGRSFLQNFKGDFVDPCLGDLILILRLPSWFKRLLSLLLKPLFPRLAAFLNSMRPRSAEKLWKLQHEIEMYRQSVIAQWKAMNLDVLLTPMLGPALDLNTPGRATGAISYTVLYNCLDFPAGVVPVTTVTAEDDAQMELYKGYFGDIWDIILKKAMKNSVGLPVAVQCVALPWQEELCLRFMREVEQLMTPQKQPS
Procedure: The effect of the test compounds on the enzymatic hydrolysis of [3H]anandamide was evaluated by using rat brain homogenate preparations. [3H]Ethanolamine produced from [3H]AEA hydrolysis was used to calculate FAAH activity and was measured by scintillation counting of the aqueous phase after extraction of the incubation mixture. Data are expressed as the concentration exerting a half maximal inhibition (IC50).

Row | IC50 | SMILES
1 | 29.5 µM | O=C1N(c2ccccc2)C(=S)NC1(c1ccccc1)c1ccccc1 [3,5,5-triphenyl-2-sulfanylideneimidazolidin-4-one]
2 | 0.01 µM | C#CCCCCCCCCCNC(=O)Oc1cccc(-c2cccc(C(N)=O)c2)c1 [3-(3-carbamoylphenyl)phenyl N-(undec-10-yn-1-yl)carbamate]
3 | 4.47 µM | CCCCCCN1C(=O)C(c2ccccc2)(c2ccccc2)NC1=S [3-hexyl-5,5-diphenyl-2-sulfanylideneimidazolidin-4-one]
4 | 9.55 µM | CCCCCCN1C(=O)NC(c2ccccc2)(c2ccccc2)C1=O [3-hexyl-5,5-diphenylimidazolidine-2,4-dione]
5 | 3.02 µM | CCCCCCCCN1C(=O)C(c2ccccc2)(c2ccccc2)NC1=S [3-octyl-5,5-diphenyl-2-sulfanylideneimidazolidin-4-one]
6 | 589 µM | CCCCCCCCN1C(=O)C(c2ccc(Br)cc2)(c2ccc(Br)cc2)NC1=S [5,5-bis(4-bromophenyl)-3-octyl-2-sulfanylideneimidazolidin-4-one]
7 | 0.000316 µM | O=C(CCCCCCc1ccccc1)c1nc2ncccc2o1 [7-phenyl-1-{pyrido[2,3-d][1,3]oxazol-2-yl}heptan-1-one]
